Results as given in patent publication US20250011299A1, “PYRIDAZINYL AMINO DERIVATIVES AS ALK5 INHIBITORS” (CHIESI FARMACEUTICI S.P.A., priority 2021, published 2025).
pKi: −log10 of the molar value.

biological target: T1, human ALK5 (Homo sapiens, UniProt P36897); experiment: ADP-GLO Kinases assay of ALK5 enzymatic activity; type: biochemical; details: purified recombinant human ALK5, TGFβ1 peptide substrate, pIC50 converted to pKi by Cheng-Prusoff, high ATP protocol (15 μM) for very potent compounds, 25° C.
T1 construct: human ALK5 (recombinant TGF β1 N-term GST-tagged, 80-end); GST (N); purchased
T1 sequence (P36897 80-503 limits assumed): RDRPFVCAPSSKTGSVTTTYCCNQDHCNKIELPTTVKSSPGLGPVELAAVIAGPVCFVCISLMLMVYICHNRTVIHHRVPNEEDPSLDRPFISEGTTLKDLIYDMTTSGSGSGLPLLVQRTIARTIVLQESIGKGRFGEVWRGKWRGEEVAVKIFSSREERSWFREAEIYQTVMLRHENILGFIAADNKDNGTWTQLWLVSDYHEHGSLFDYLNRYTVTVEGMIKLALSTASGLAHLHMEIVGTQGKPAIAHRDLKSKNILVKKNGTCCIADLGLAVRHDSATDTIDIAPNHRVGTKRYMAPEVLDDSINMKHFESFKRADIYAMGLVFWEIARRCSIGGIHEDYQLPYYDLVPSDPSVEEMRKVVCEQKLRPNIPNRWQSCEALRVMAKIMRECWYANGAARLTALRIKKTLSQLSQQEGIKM
Procedure: The enzymatic activity of compounds of the present invention was monitored measuring the formation of ADP using the ADP-GLO Kinases assay. Following the incubation of the purified enzyme, a substrate and ATP, the produced ADP was converted into ATP, which in turn was converted into light by Ultra-Glo Luciferase. The luminescent signal positively correlated with ADP amount and kinase activity. […] Compound and ALK5 kinase were mixed and incubated for 15 mins. […] After an incubation of 120 min, the reaction was stopped, and ADP production detected with ADP-Glo kit according to manufacturer's indications. […] After an incubation of 60 min, the kinase reaction was stopped, and ADP production detected with ADP-Glo kit according to manufacturer's indications. All reaction and incubation steps were performed at 25° C. and the assays were performed in 384-well format and validated using a selection of reference compounds tested in 11-point concentration-response curve. […] Results were expressed as pIC50 (negative logarithm of IC50) and subsequently converted to pKi (negative logarithm of […]) using the Cheng-Prusoff equation. The higher the value of pKi, the greater the inhibition of ALK5 activity.

pKi, 9.50 to 9.90:
COC(=O)COc1nnc(-c2cc(Cl)ccc2F)cc1Nc1ccnc(NC(=O)CCN2CCN(C)CC2)c1 [Example 15, methyl 2-{[6-(5-chloro-2-fluorophenyl)-4-({2-[3-(4-methylpiperazin-1-yl)propanamido]pyridin-4-yl}amino)pyridazin-3-yl]oxy}acetate]
CN1CCN([C@H]2C[C@@H](C(=O)Nc3cc(Nc4cc(-c5cc(Cl)ccc5F)nnc4N(C)CC4(C)CCOC4=O)ccn3)C2)CC1 (single isomer, unassigned) [Example 136, Cis N-(4-{[6-(5-chloro-2-fluorophenyl)-3-{methyl[(3-methyl-2-oxooxolan-3-yl)methyl]amino}pyridazin-4-yl]amino}pyridin-2-yl)-3-(4-methylpiperazin-1-yl)cyclobutane-1-carboxamide]
CN1CCN(CCOc2ccc3c(Nc4cc(-c5cc(Cl)ccc5F)nnc4OCCN)ccnc3c2)CC1 [Example 5, N-[3-(2-aminoethoxy)-6-(5-chloro-2-fluorophenyl)pyridazin-4-yl]-7-[2-(4-methylpiperazin-1-yl)ethoxy]quinolin-4-amine]
CN1CCN(CCC(=O)Nc2cc(Nc3cc(-c4cc(Cl)ccc4F)nnc3OCc3ccc4c(c3)OC(C)(C)O4)ccn2)CC1 [Example 116, N-(4-{[6-(5-chloro-2-fluorophenyl)-3-[(2,2-dimethyl-2H-1,3-benzodioxol-5-yl)methoxy]pyridazin-4-yl]amino}pyridin-2-yl)-3-(4-methylpiperazin-1-yl)propanamide]
COCC1(CN(C)c2nnc(-c3cc(Cl)ccc3F)cc2Nc2ccnc(NC(=O)CCN3CCN(C)CC3)c2)CCOC1=O (single isomer, unassigned) [Example 202, N-(4-{[6-(5-chloro-2-fluorophenyl)-3-({[3-(methoxymethyl)-2-oxooxolan-3-yl]methyl}(methyl)amino)pyridazin-4-yl]amino}pyridin-2-yl)-3-(4-methylpiperazin-1-yl)propanamide]
CSCCCOc1nnc(-c2cc(Cl)ccc2F)cc1Nc1ccnc(NC(=O)CCN2CCN(C)CC2)c1 [Example 4, N-(4-{[6-(5-chloro-2-fluorophenyl)-3-[3-(methylsulfanyl)propoxy]pyridazin-4-yl]amino}pyridin-2-yl)-3-(4-methylpiperazin-1-yl)propanamide]
COC(=O)C1CN(c2nnc(-c3cc(Cl)ccc3F)cc2Nc2ccnc(NC(=O)CCN3CCN(C)CC3)c2)C1 [Example 98, methyl 1-[6-(5-chloro-2-fluorophenyl)-4-({2-[3-(4-methylpiperazin-1-yl)propanamido]pyridin-4-yl}amino)pyridazin-3-yl]azetidine-3-carboxylate]
CN1CCN(CCC(=O)Nc2cc(Nc3cc(-c4cc(Cl)ccc4F)nnc3OCCN)ccn2)CC1 [Example 8, N-(4-{[3-(2-aminoethoxy)-6-(5-chloro-2-fluorophenyl)pyridazin-4-yl]amino}pyridin-2-yl)-3-(4-methylpiperazin-1-yl)propanamide]
COC(=O)C12CC(COc3nnc(-c4cc(Cl)ccc4F)cc3Nc3ccnc(NC(=O)CCN4CCN(C)CC4)c3)(C1)C2 [Example 125, methyl 3-({[6-(5-chloro-2-fluorophenyl)-4-({2-[3-(4-methylpiperazin-1-yl)propanamido]pyridin-4-yl}amino)pyridazin-3-yl]oxy}methyl)bicyclo[1.1.1]pentane-1-carboxylate]

pKi, ≥ 10.00:
C[C@@H]1CN(CCC(=O)Nc2cc(Nc3cc(-c4cc(Cl)ccc4F)nnc3N(C)CC3(C)CCOC3=O)ncn2)C[C@H](C)N1 (single isomer, unassigned) [Example 198, N-(6-{[6-(5-chloro-2-fluorophenyl)-3-{methyl[(3-methyl-2-oxooxolan-3-yl)methyl]amino}pyridazin-4-yl]amino}pyrimidin-4-yl)-3-(3,5-dimethylpiperazin-1-yl)propanamide]
CN1CCN([C@H]2C[C@@H](C(=O)Nc3cc(Nc4cc(-c5cc(Cl)ccc5F)nnc4N(C)C)ccn3)C2)CC1 [Example 97, cis N-(4-{[6-(5-chloro-2-fluorophenyl)-3-(dimethylamino)pyridazin-4-yl]amino}pyridin-2-yl)-3-(4-methylpiperazin-1-yl)cyclobutane-1-carboxamide]
CN1CCN([C@H]2C[C@@H](C(=O)Nc3cc(Nc4cc(-c5cc(Cl)ccc5F)nnc4SC(C)(C)CO)ccn3)C2)CC1 [Example 94, Cis N-(4-{[6-(5-chloro-2-fluorophenyl)-3-[(1-hydroxy-2-methylpropan-2-yl)sulfanyl]pyridazin-4-yl]amino}pyridin-2-yl)-3-(4-methylpiperazin-1-yl)cyclobutane-1-carboxamide]
CN1CCN([C@H]2C[C@H](C(=O)Nc3cc(Nc4cc(-c5cc(Cl)ccc5F)nnc4N(C)C)ccn3)C2)CC1 (single isomer, unassigned) [Example 96, trans N-(4-{[6-(5-chloro-2-fluorophenyl)-3-(dimethylamino)pyridazin-4-yl]amino}pyridin-2-yl)-3-(4-methylpiperazin-1-yl)cyclobutane-1-carboxamide]
O=C(CN1CCCNCC1)Nc1cc(Nc2cc(-c3cc(Cl)ccc3F)nnc2SCCO)ccn1 [Example 61, N-(4-{[6-(5-chloro-2-fluorophenyl)-3-[(2-hydroxyethyl)sulfanyl]pyridazin-4-yl]amino}pyridin-2-yl)-2-(1,4-diazepan-1-yl)acetamide]
CN1CCN([C@H]2C[C@@H](C(=O)Nc3cc(Nc4cc(-c5cc(Cl)ccc5F)nnc4N(C)CC4(C)CCOC4=O)ccn3)C2)CC1 (single isomer, unassigned) [Example 135, Cis N-(4-{[6-(5-chloro-2-fluorophenyl)-3-{methyl[(3-methyl-2-oxooxolan-3-yl)methyl]amino}pyridazin-4-yl]amino}pyridin-2-yl)-3-(4-methylpiperazin-1-yl)cyclobutane-1-carboxamide]
CN1CCN(CCC(=O)Nc2cc(Nc3cc(-c4cc(Cl)ccc4F)nnc3N(C)C)ccn2)CC1 [Example 30, N-(4-{[6-(5-chloro-2-fluorophenyl)-3-(dimethylamino)pyridazin-4-yl]amino}pyridin-2-yl)-3-(4-methylpiperazin-1-yl)propanamide]
CN1CCCN(CC(=O)Nc2cc(Nc3cc(-c4cc(Cl)ccc4F)nnc3OC3CCOC3)ccn2)CC1 (racemic) [Example 72, N-(4-{[6-(5-chloro-2-fluorophenyl)-3-(oxolan-3-yloxy)pyridazin-4-yl]amino}pyridin-2-yl)-2-(4-methyl-1,4-diazepan-1-yl)acetamide]
CN1CCN(CCC(=O)Nc2cc(Nc3cc(-c4cc(Cl)ccc4F)nnc3N(C)CC3(C)CCOC3=O)ccn2)CC1 (single isomer, unassigned) [Example 128, N-(4-{[6-(5-chloro-2-fluorophenyl)-3-{methyl[(3-methyl-2-oxooxolan-3-yl)methyl]amino}pyridazin-4-yl]amino}pyridin-2-yl)-3-(4-methylpiperazin-1-yl)propanamide]
Cc1oc(=O)oc1CSc1nnc(-c2cc(Cl)ccc2F)cc1Nc1ccnc(NC(=O)CCN2CCN(C)CC2)c1 [Example 190, N-(4-{[6-(5-chloro-2-fluorophenyl)-3-{[(5-methyl-2-oxo-2H-1,3-dioxol-4-yl)methyl]sulfanyl}pyridazin-4-yl]amino}pyridin-2-yl)-3-(4-methylpiperazin-1-yl)propanamide]
